Where a SMILES comes first, the peptide text is derived from it.
Assays:
HOG cells [1] = assay: Targeted LC-MS/MS of NAA and NAAG in HOG cells incubated with NAA or NAAG media; type: cell-based, human
Protocol: Targeted mass LC-MS/MS. Simultaneous quantification of NAA and NAAG in cell culture media, cell lysates, and tissues was done by liquid chromatography-electrospray ionization-tandem mass spectrometry (LC-ESI-MS/MS).
Sample preparation. Media above the cells and cell lysates: To 20 μL of sample 40 μL of ice-cold methanol was added, mixture vigorously agitated (FastPrep, Qbiogene, Carlsbad, Calif. 20 s, speed 6), left at −20° C. for 15 min, agitated again (same cond.), centrifuged at 16,000 g for 5 min, and 50 μL of supernatant dried by vacuum centrifuge (50° C., 1 hr, SpeedVac, Thermo Scientific, West Palm Beach, Fla.). The dry residue was dissolved by 50 μL of mobile phase A (see below) and 10 μL injected into LC-MS/MS system. Tissue samples: To […] sample of wet tissue, 300 μL of deionized water and one 4 mm ceramic bead was added in 2-mL polypropylene tube and vigorously agitated (FastPrep, 20 s, speed 4, 2 cycles). A 50 μL aliquot of the homogenate was pipetted out for total protein measurement (for tissue mass normalization purpose) and 500 μL methanol added to the original vial which was again agitated (FastPrep, same conditions), left at −20° C. for 15 min, centrifuged at 16,000 g for 5 min, and 650 μL of supernatant dried by vacuum centrifuge (SpeedVac, 50° C., 1.5 hr). The dry residue was dissolved by 50 μL of mobile phase A (see below) and 10 μL injected into LC-MS/MS system.
LC-MS/MS analysis. Equipment: Agilent 1200 series HPLC (Santa Clara, Calif.) and Sciex/Applied Biosystems API 3200 QTrap (Carlsbad, Calif.). Mobile phase A: water, 3% methanol; mobile phase B: acetonitrile/methanol, 1/1. Analytical column: Kinetex C18, 150×4.6 mm, 2.6 μm, and SafeGuard C18 4×3 mm guard-column from Phenomenex (Torrance, Calif.). Column temperature: 45° C. Elution gradient at 1 mL/min flow rate: 0-1 min 0% B, 1-2 min 0-80% B, 2-3.5 min 80% B, 3.5-4 min 80-0% B, 4-10 min 0% B. Injection volume: 10 μL. The Q1/Q3 (m/z) transitions monitored in positive electrospray ionization mode: 176/158 (NAA, quantification), 176/134 (NAA, confirmation), 305/148 (NAAG, quantification), 305/130 (NAAG, confirmation).
Calibration. A set of calibrator samples in corresponding matrix was prepared for calibration by adding appropriate amounts of pure NAA and NAAG at the following concentration levels: 0, 0.01, 0.05, 0.25, 1.25, and 6.25 μg/mL. These samples were analyzed alongside the experimental samples and accuracy acceptance criteria was 85% for each but the lowest level (0.01 μg/mL, 80%). The limit of quantification (at 80% accuracy criterion) was determined to be 10 ng/ml for both NAA and NAAG. Samples in which NAA or NAAG was not detected were assigned to have a value of 0 NAA or NAAG (FIG. 5A,B). Statistically significant differences that we reported (FIG. 5A,B) were still significant when 10 ng/ml was assigned for samples in which NAA or NAAG was not detected. Quadratic least squares regression curve fit was employed to account for slight but predictable nonlinearity (ESI of highly polar analytes) with 1/x weighing factor. The addition of methanol to the sample matrix is shared with a recently reported NAAG analysis method (32). Otherwise this procedure is, to the best of our knowledge, novel.
Univariate statistics. Welch's t-test was used to determine whether mean levels of a biochemical in one experimental group were different from mean levels in another group. […]

HOG cells [2] = assay: Metabolomic profiling (LC-MS, GC-MS) of HOG cell lysates after 2HG treatment or IDH1 shRNA expression; type: cell-based, human; settings: for number of biochemicals with altered levels: 72 hours, HOG cells vs vector, p<0.05
Description: Cell lines. HOG cells were derived from a human WHO grade III anaplastic oligodendroglioma (28) and previously found not to contain exon 4 IDH1 or exon 4 IDH2 mutations (8). The HOG cell line was kindly donated by Dr. A. T. Campagnoni at UCLA. To express IDH1 and IDH2 transgenes in cells, IDH1 and IDH2 cDNAs, or cDNAs mutagenized to IDH1-R132H or IDH2-R172K, were cloned into pLenti6.2/V5 (Invitrogen, Carlsbad, Calif.). Viruses were created using these constructs in 293FT cells and these were used to transduce cells derived from the same parental pool of HOG cells for 24 h. Cells derived from the same clone were reasoned to have homogenous IDH transgene expression levels and metabolic profiles compared to pools of cells or transiently transfected cells, facilitating the identification of metabolites that have altered levels in different clones. Virus was replaced by fresh media for 48 hours and then stable clones were selected from single-cell dilutions in 5 μg/ml blasticidin for 3 weeks. Stable HOG cell lines containing IDH1 shRNA or control were constructed by transfecting HOG cells with pSuperRetro vector (OligoEngine, Seattle, Wash.) containing IDH1-specific hairpin or a scrambled sequence (5′-cat aac gag cgg aag aac g-3′). The IDH1-specific hairpin was created using the primers 5′-gat ccc cGG GAA GTT CTG GTG TCA Tat tca aga gaT ATG ACA CCA GAA CTT CCC ttt ttg gaa a-3′ and 5′-agc ttt tcc aaa aaG GGA AGT TCT GGT GTC ATA tct ctt gaa TAT GAC ACC AGA ACT TCC Cgg g-3′, with capital letters representing bases homologous to IDH1 sequence. Clones were selected with 500 μg/ml G418 for 3 weeks and expanded after single cell dilution. Percent knockdown was determined by ImageJ (v1.43, available at http://rsbweb.nih.gov/ij/, developed by Wayne Rasband, National Institutes of Health, Bethesda, Md.) analysis of the intensity of immunoblot anti-IDH1 bands, normalized to the intensity of anti-GAPDH internal control bands (FIG. S4A). The same clone of vector, IDH1-WT, and IDH1-R132H HOG cells were used in all experiments.
2HG synthesis. 2HG was synthesized by treatment of D-glutamate (Sigma-Aldrich, St. Louis, Mo.) with nitrous acid to form a lactone, which was then hydrolyzed with NaOH solution to form 2-D-hydroxyl glutarate. Purity was 93%. Powder was resuspended in PBS and filtered through a 0.22 μm filter using sterile technique for treatment of cells.
Metabolomic analysis. Cell line treatment: Cells were grown under respective experimental conditions in IMDM media (Gibco, Invitrogen, Carlsbad, Calif.) supplemented with 10% FBS. For the experiment in FIG. 2, cells were grown in a media mix that also contained either 10% PBS or 10% of a 300 mM or 75 mM 2HG solution in PBS for a final 30 mM or 7.5 mM 2HG. Cells were seeded into flasks three days before harvesting. To harvest cells, media was removed, monolayers were washed with PBS, and 0.05% trypsin/EDTA was added. Cells were incubated for 20 min at 37° C. or until cells detached. Two volumes of media were added to the Trypsin/cell mix and suspended by gentle pipetting and triteration. Cells were counted, and 10^7 cells per sample were spun down at 1000 rpm×3 min in a polystyrene tube. Cells were washed twice with PBS and then snap-frozen on dry ice and stored at −80° C. until analysis.
Metabolite analysis: Metabolomic profiling analysis of all samples was carried out in collaboration with Metabolon (Durham, N.C.) as described previously (29-31), as follows:
Sample Preparation: The sample preparation process was carried out using the automated MicroLabSTAR® system (Hamilton Company, Reno, Nev.). Recovery standards were added prior to the first step in the extraction process for QC purposes. Sample preparation was conducted using a proprietary series of organic and aqueous extractions to remove the protein fraction while allowing maximum recovery of small molecules. The resulting extract was divided into two fractions; one for analysis by LC and one for analysis by GC. […]

[3] = test system: complex V (ATP synthase) of the mitochondrial electron transport chain; settings: chick neurons; reference 27; cited from earlier work
[4] = 30 mM 2HG-treated HOG cells vs vector, p<0.001

CC(=O)N[C@@H](CC(=O)O)C(=O)N[C@@H](CCC(=O)O)C(=O)O [NAAG, N-acetyl-aspartyl-glutamate] (Ac-Asp-Glu-OH)
NAA levels in NAAG-treated cells (HOG cells [1]; 10 μM NAAG, all groups (vector, IDH1-WT, IDH1-R132H)): modestly increased | intracellular NAAG levels compared to the no treatment group (HOG cells [1]; HOG cells treated with 10 μM NAAG, 48 hours): increased

CC(=O)N[C@@H](CC(=O)O)C(=O)O [NAA, N-acetyl-aspartate]
level of NAA in IDH1-R132H expressing cells (HOG cells [1]; HOG IDH1-R132H cells, 100 μM NAA media, 48 hours): increased the level of NAA in IDH1-R132H expressing cells to the normal level of NAA in the vector control | intracellular NAA levels compared to controls (HOG cells [1]; HOG cells in media containing 100 μM NAA, 48 hours): higher | NAAG in HOG cells expressing IDH1-R132H (HOG cells [1]; after NAA treatment (100 μM NAA media, 48 hours)): did not increase

O=C(O)CC[C@@H](O)C(=O)O [2HG, 2-D-hydroxyl glutarate]
number of biochemicals with altered levels (HOG cells [2]; 7.5 mM 2HG): 117 | 2HG elevation (intracellular) (HOG cells [2]; 30 mM 2HG group, HOG lysate vs vector, p<0.001): 54 fold | number of biochemicals with altered levels (HOG cells [2]; 30 mM 2HG): 130 | reduced and oxidized glutathione (HOG cells [2]; 30 mM 2HG-treated HOG cells vs vector): not significantly affected | α-ketoglutarate higher (HOG cells [2]; 30 mM 2HG-treated HOG cells vs vector, non-significant, p=0.10): 1.3 fold | N-acetyl-aspartate (NAA) lower (HOG cells [2]; 30 mM 2HG-treated HOG cells vs vector, not significantly changed, p=0.38): 1.1 fold | GPC higher (HOG cells [2]; [4]): 3.0 fold | NAAG lower (HOG cells [2]; [4]): 1.8 fold | choline phosphate lower (HOG cells [2]; [4]): 100 fold | glutamate increased (HOG cells [2]; 30 mM 2HG-treated HOG cells vs vector, p=0.002): 1.4 fold | effect on complex V (ATP synthase) [3]: impair

Source: patent publication US20120202883A1, “EFFECTS OF IDH1 AND IDH2 MUTATIONS ON THE CELLULAR METABOLOME” (DUKE UNIVERSITY, priority 2011, published 2012)
